Experiments:
[1] = molecular target: T1, FLT3 (Homo sapiens, UniProt P36888); assay: TR-FRET kinase activity assay, FLT3; format: biochemical; conditions: ATP at Km, 60 minutes
T1 sequence (P36888 27-993): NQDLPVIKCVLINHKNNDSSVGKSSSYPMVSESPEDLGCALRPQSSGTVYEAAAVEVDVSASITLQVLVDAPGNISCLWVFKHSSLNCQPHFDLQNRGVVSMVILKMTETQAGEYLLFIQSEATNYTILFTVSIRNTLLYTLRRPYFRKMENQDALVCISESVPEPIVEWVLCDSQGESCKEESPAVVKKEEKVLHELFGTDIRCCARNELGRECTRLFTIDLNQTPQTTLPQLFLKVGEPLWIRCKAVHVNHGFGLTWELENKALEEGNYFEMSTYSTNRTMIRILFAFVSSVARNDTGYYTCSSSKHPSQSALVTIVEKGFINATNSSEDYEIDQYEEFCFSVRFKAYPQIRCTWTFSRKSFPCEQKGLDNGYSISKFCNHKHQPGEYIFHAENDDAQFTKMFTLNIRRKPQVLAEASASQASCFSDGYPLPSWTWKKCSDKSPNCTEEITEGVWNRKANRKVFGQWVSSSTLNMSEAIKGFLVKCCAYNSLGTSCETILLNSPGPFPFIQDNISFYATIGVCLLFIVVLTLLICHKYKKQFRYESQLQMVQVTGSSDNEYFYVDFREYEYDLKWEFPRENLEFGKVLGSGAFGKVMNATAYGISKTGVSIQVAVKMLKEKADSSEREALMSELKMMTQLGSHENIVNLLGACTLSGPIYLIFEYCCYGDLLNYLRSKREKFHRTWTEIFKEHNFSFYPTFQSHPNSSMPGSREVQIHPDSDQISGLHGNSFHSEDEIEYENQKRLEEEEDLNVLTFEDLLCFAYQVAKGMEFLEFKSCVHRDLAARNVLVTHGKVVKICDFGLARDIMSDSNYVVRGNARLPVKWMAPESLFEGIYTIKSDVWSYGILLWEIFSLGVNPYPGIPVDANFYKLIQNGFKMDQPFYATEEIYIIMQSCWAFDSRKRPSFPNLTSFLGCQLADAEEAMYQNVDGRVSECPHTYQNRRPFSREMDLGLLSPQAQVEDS
Summary of the method: (§1)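 Enzyme, fluorescent peptide substrate and compound were mixed, and the reaction was started with ATP at each kinase's Km, in 50 mM HEPES pH 7.5, 10 mM MgCl2, 1 mM EGTA, 0.01% Brij 35, 1 mM DTT at RT. After 60 minutes EDTA quench, Eu-labelled phospho-specific antibody was added for 30 minutes, and IC50 was derived from TR-FRET signal loss.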

[2] = molecular target: T2, MERTK (Homo sapiens, UniProt Q12866); assay: TR-FRET kinase activity assay, MERTK; format: biochemical; conditions: for IC50: TR-FRET activity assay, ATP at Km, 60 minutes, read-out: Mer IC50
T2 sequence (Q12866 21-999): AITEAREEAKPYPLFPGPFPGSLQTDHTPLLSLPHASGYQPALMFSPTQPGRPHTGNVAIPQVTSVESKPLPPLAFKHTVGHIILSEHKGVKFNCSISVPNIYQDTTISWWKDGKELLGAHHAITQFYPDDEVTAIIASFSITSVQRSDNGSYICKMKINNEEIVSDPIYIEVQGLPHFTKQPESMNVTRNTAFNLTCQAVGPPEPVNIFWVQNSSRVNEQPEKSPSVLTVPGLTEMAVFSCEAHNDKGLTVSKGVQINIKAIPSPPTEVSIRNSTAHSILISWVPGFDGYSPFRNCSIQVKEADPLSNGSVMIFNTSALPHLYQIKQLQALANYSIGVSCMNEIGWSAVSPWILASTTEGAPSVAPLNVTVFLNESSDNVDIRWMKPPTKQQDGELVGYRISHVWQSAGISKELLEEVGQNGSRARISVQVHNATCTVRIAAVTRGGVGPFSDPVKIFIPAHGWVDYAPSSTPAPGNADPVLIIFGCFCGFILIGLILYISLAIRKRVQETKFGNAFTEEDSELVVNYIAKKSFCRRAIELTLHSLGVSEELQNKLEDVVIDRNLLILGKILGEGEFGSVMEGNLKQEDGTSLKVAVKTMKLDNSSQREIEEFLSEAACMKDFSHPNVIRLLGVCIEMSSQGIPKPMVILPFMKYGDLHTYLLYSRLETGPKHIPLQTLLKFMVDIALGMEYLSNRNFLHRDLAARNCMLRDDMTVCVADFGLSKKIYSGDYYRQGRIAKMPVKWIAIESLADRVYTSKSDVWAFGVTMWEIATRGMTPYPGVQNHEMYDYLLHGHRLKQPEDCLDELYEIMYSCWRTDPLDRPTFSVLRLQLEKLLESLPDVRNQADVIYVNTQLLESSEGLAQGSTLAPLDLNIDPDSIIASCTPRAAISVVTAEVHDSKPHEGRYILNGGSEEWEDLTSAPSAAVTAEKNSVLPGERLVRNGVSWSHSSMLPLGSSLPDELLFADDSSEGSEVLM
Summary of the method: as §1

[3] = ratio calculated as FLT3 IC50/Mer IC50
[4] = ratio of Mer to FLT3: FLT3 IC50/Mer IC50

Structure (SMILES) | IC50 [1] [nM] | IC50 [2] [nM] | FLT3/Mer ratio (FLT3 IC50/Mer IC50) [2, 3] | FLT3/Mer ratio (FLT3 IC50/Mer IC50) [2, 4]
COCC(C)Nc1ncc2c(-c3cnn(C4COC4)c3)cc(C3CCNC(=O)C3)n2n1 (mixture of isomers) [Compound 592] | 1000 to 10000 | ≤ 100 | +++ (“+++” represents a ratio of >100) | 
CC(COc1ccccc1)Nc1ncc2c(-c3cnn(C4COC4)c3)cc([C@H]3CC[C@H](O)CC3)n2n1 (mixture of isomers) [Compound 528] | 100 to 1000 | ≤ 100 | +++ (“+++” represents a ratio of >100) | 
CC(Cc1ccc(F)cc1)Nc1ncc2c(-c3cnn(C4COC4)c3)cc(C3CCC(O)CC3)n2n1 (racemic) [Compound 535] | ≤ 100 | ≤ 100 | ++ (“++” represents a ratio of between 10 and 100) | 
CC(Nc1ncc2c(-c3cnn(C4COC4)c3)cc(C3CCC(O)CC3)n2n1)c1cccnc1 (racemic) [Compound 536] | 1000 to 10000 | ≤ 100 | +++ (“+++” represents a ratio of >100) | 
CC[C@H](C)Nc1ncc2c(C3CCNCC3)cc([C@H]3CC[C@H](O)CC3)n2n1 [Compound 135, (trans)-4-(2-((S)-sec-butylamino)-5-(piperidin-4-yl)pyrrolo[2,1-f][1,2,4]triazin-7-yl)cyclohexanol] | 100 to 1000 | ≤ 100 |  | +++ (“+++” represents a ratio of >100)
CC[C@H](C)Nc1ncc2c(C3CCN(c4nccc(C)n4)CC3)cc([C@H]3CC[C@H](O)CC3)n2n1 [Compound 136, (trans)-4-(2-((S)-sec-butylamino)-5-(1-(4-methylpyrimidin-2-yl)piperidin-4-yl)pyrrolo[2,1-f][1,2,4]triazin-7-yl)cyclohexanol] | 1000 to 10000 | ≤ 100 |  | +++ (“+++” represents a ratio of >100)
CCCCC[C@H](C)Nc1ncc2c([C@H]3CC[C@@H](C(=O)N4CCS(=O)(=O)CC4)CC3)cc([C@H]3CC[C@H](O)CC3)n2n1 [Compound 137] | 100 to 1000 | ≤ 100 |  | +++ (“+++” represents a ratio of >100)
CCOCC(C)Nc1ncc2c(-c3ccc(CN4CCN(C)CC4)cc3)cc(C3CCC(O)CC3)n2n1 (stereo not drawn) [Compound 138] | 100 to 1000 | ≤ 100 |  | ++ (“++” represents a ratio of between 10 and 100)
COC[C@H](C)Nc1ncc2c(-c3ccc(C(=O)O)cc3)cc([C@H]3CC[C@H](O)CC3)n2n1 [Compound 139] | 1000 to 10000 | ≤ 100 |  | +++ (“+++” represents a ratio of >100)
COC[C@H](C)Nc1ncc2c(-c3ccc(CN4CCOCC4)cc3)cc([C@H]3CC[C@H](O)CC3)n2n1 [Compound 140] | 100 to 1000 | ≤ 100 |  | +++ (“+++” represents a ratio of >100)
COC[C@H](C)Nc1ncc2c(C3=CCOCC3)cc([C@H]3CC[C@H](O)CC3)n2n1 [Compound 141] | 100 to 1000 | ≤ 100 |  | +++ (“+++” represents a ratio of >100)
COCC(C)Nc1ncc2c(-c3ccc(CN4CCCC4)cc3)cc(C3CCC(O)CC3)n2n1 (stereo not drawn) [Compound 142] | 100 to 1000 | ≤ 100 |  | +++ (“+++” represents a ratio of >100)
COCC(C)Nc1ncc2c(-c3ccc(C(C)N4CCOCC4)cc3)cc(C3CCC(O)CC3)n2n1 (stereo not drawn) [Compound 143] | ≤ 100 | ≤ 100 |  | ++ (“++” represents a ratio of between 10 and 100)
C[C@H](Nc1ncc2c(-c3cnn(C4COC4)c3)cc([C@H]3CC[C@H](O)CC3)n2n1)C(F)(F)F [Compound 510] | 1000 to 10000 | ≤ 100 | +++ (“+++” represents a ratio of >100) | 
COC[C@H](C)Nc1ncc2c(-c3cnn(C4COC4)c3)cc(-c3cccc(O)c3)n2n1 [Compound 511] | 100 to 1000 | ≤ 100 | ++ (“++” represents a ratio of between 10 and 100) | 
COC[C@H](C)Nc1ncc2c(-c3ccnc(N4CCN(CC5COC5)CC4)c3)cc([C@H]3CC[C@H](O)CC3)n2n1 [Compound 512] | 100 to 1000 | ≤ 100 | +++ (“+++” represents a ratio of >100) | 
C[C@@H](COC(F)F)Nc1ncc2c(-c3ccc(S(C)(=O)=O)nc3)cc([C@H]3CC[C@H](O)CC3)n2n1 [Compound 513] | 100 to 1000 | ≤ 100 | +++ (“+++” represents a ratio of >100) | 
CCN(C(=O)N1CCN(c2cc(-c3cc([C@H]4CC[C@H](O)CC4)n4nc(N[C@@H](C)COC)ncc34)ccn2)CC1)C(C)C [Compound 514] | 1000 to 10000 | ≤ 100 | +++ (“+++” represents a ratio of >100) | 
COC[C@H](C)Nc1ncc2c(-c3cnn(C4COC4)c3)cc(C3CCC(F)(F)CC3)n2n1 [Compound 515] | 100 to 1000 | ≤ 100 | +++ (“+++” represents a ratio of >100) | 
COC[C@H](C)Nc1ncc2c(-c3cnn(C(C)(C)C(=O)N4CCCC5(COC5)C4)c3)cc([C@H]3CC[C@H](O)CC3)n2n1 [Compound 516] | 1000 to 10000 | ≤ 100 | +++ (“+++” represents a ratio of >100) | 
Cc1nnc(C(C)(C)n2cc(-c3cc([C@H]4CC[C@H](O)CC4)n4nc(N[C@@H](C)COC(F)F)ncc34)cn2)o1 [Compound 517] | 1000 to 10000 | ≤ 100 | +++ (“+++” represents a ratio of >100) | 
COC[C@H](C)Nc1ncc2c(-c3ccnc(N4CCc5cnn(C)c5C4)c3)cc([C@H]3CC[C@H](O)CC3)n2n1 [Compound 518] | 1000 to 10000 | ≤ 100 | +++ (“+++” represents a ratio of >100) | 
COC[C@H](C)Nc1ncc2c(-c3cnn(C4COC4)c3)cc(C3CCSCC3)n2n1 [Compound 522] | 100 to 1000 | ≤ 100 | +++ (“+++” represents a ratio of >100) | 
COC[C@H](C)Nc1ncc2c(-c3cnn(C4COC4)c3)cc(C3CCC(=O)NC3)n2n1 (stereo partly drawn) [Compound 526] | 1000 to 10000 | ≤ 100 | ++ (“++” represents a ratio of between 10 and 100) | 
C[C@@H](Nc1ncc2c(-c3cnn(C4COC4)c3)cc([C@H]3CC[C@H](O)CC3)n2n1)C(F)(F)F [Compound 527] | 100 to 1000 | ≤ 100 | +++ (“+++” represents a ratio of >100) | 
COC[C@H](C)Nc1ncc2c(-c3ccc([S@](C)(=N)=O)nc3)cc([C@H]3CC[C@H](O)CC3)n2n1 [Compound 532] | 1000 to 10000 | ≤ 100 | +++ (“+++” represents a ratio of >100) | 

From patent US11040981B2, “Pyrrolotriazine compounds and methods of inhibiting TAM kinases” (Syros Pharmaceuticals, Inc., priority 2017, dated 2021)
